Structures can show the parent of a compound that is named as a salt.
Molecular target: HPK1 (Homo sapiens (Human), UniProt Q92918)
Assay: HPK1 Inhibition Assay (ADP-Glo kinase assay)
Format: biochemical
Settings: ATP 10 μM
Experimental: A stock solution of 10 mM test compound was prepared in DMSO. The compound was prepared by 5-fold and 10-point serial dilutions with HPK1 kinase assay buffer. The HPK1 kinase assay buffer contained 40 mM Tris, pH 7.5; 20 mM MgCl2, 0.1 mg/ml BSA, and 50 μM DTT. 7.5 ng/μl of Active HPK1 (Promega, V4098) and 0.1 μg/ml MBP substrate protein were added to the reaction system. The final concentration of ATP in the HPK1 kinase reaction system was 10 μM. Serial diluted compounds were transferred to the reaction system and incubated at room temperature for 1 hr. 5 μL of ADP-Glo™ Reagent (Promega, V9101) was added and incubated for 40 min to stop the kinase reaction and deplete the unconsumed ATP. […] The luminescence was measured with a plate-reading luminometer.

HPK1, sequence (Q92918 1-346 limits assumed): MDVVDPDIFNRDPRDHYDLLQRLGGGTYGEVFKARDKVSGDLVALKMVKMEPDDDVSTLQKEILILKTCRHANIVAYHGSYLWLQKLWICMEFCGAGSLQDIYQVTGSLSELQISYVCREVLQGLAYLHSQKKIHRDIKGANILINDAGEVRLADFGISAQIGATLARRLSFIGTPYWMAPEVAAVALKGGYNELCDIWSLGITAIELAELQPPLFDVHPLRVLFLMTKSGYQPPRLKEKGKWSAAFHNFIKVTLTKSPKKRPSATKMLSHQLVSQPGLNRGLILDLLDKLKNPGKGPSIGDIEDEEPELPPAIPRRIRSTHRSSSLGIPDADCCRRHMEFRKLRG

Structure (SMILES)	IC50
COc1cccc(F)c1-c1nccc(C(=O)Nc2ccc3c(nc(C)n3C)c2N2CC[C@H](N)C2)c1F [Example 10, N-(4-((S)-3-aminopyrrolidin-1-yl)-1,2-dimethyl-1H-benzo[d]imidazol-5-yl)-3-fluoro-2-(2-fluoro-6-methoxyphenyl)isonicotinamide]	< 100 nM
COCCn1c(C)nc2c(N3CC[C@H](N)C3)c(NC(=O)c3ccnc(-c4c(F)cccc4OC)c3F)ccc21 [Example 11, N-(4-((S)-3-aminopyrrolidin-1-yl)-1-(2-methoxyethyl)-2-methyl-1H-benzo[d]imidazol-5-yl)-3-fluoro-2-(2-fluoro-6-methoxyphenyl)isonicotinamide]	< 100 nM
COc1cccc(F)c1-c1nccc(C(=O)Nc2ccc(-c3cnccc3C#N)cc2N2CC[C@H](N)C2)c1F [Example 12, N-(2-((S)-3-aminopyrrolidin-1-yl)-4-(4-cyanopyridin-3-yl)phenyl)-3-fluoro-2-(2-fluoro-6-methoxyphenyl)isonicotinamide]	< 100 nM
COc1cccc(F)c1-c1nccc(C(=O)Nc2ccc(-c3cnccc3C#N)cc2N2C[C@@H](N)C[C@H]2CO)c1F [Example 13, N-(2-((2S,4S)-4-amino-2-(hydroxymethyl)pyrrolidin-1-yl)-4-(4-cyanopyridin-3-yl)phenyl)-3-fluoro-2-(2-fluoro-6-methoxyphenyl)isonicotinamide]	< 100 nM
COc1cccc(F)c1-c1nccc(C(=O)Nc2ccc3c(nc(-c4ccncc4F)n3C)c2N2CC[C@H](N)C2)c1F [Example 14, N-{4-[(3S)-3-aminopyrrolidin-1-yl]-2-(3-fluoropyridin-4-yl)-1-methyl-1,3-benzodiazol-5-yl}-3-fluoro-2-(2-fluoro-6-methoxyphenyl)pyridine-4-carboxamide]	< 100 nM
COCc1nc2c(N3CC[C@H](N)C3)c(NC(=O)c3ccnc(-c4c(F)cccc4OC)c3F)ccc2n1C [Example 15, N-{4-[(3S)-3-aminopyrrolidin-1-yl]-2-(methoxymethyl)-1-methyl-1,3-benzodiazol-5-yl}-3-fluoro-2-(2-fluoro-6-methoxyphenyl) pyridine-4-carboxamide]	< 100 nM
Cn1c(C(F)(F)F)nc2c(N3CC[C@H](N)C3)c(NC(=O)c3ccnn(-c4c(F)cccc4F)c3=O)ccc21 [Example 39, (S)—N-(4-(3-aminopyrrolidin-1-yl)-1-methyl-2-(trifluoromethyl)-1H-benzo[d]imidazol-5-yl)-2-(2,6-difluorophenyl)-3-oxo-2,3-dihydropyridazine-4-carboxamide]	100 to 1000 nM
Cn1c(C(F)(F)F)nc2c(N3CCC[C@H]3CN)c(NC(=O)c3ccnn(-c4c(F)cccc4F)c3=O)ccc21 [Example 40, (S)-N-(4-(2-(aminomethyl)pyrrolidin-1-yl)-1-methyl-2-(trifluoromethyl)-1H-benzo[d]imidazol-5-yl)-2-(2,6-difluorophenyl)-3-oxo-2,3-dihydropyridazine-4-carboxamide]	< 100 nM
COc1cccc(F)c1-n1nccc(C(=O)Nc2ccc3c(nc(C(F)(F)F)n3C)c2N2CC[C@H](N)C2)c1=O [Example 41, (S)-N-(4-(3-aminopyrrolidin-1-yl)-1-methyl-2-(trifluoromethyl)-1H-benzo[d]imidazol-5-yl)-2-(2-fluoro-6-methoxyphenyl)-3-oxo-2,3-dihydropyridazine-4-carboxamide]	< 100 nM
Cn1c(-c2ccncc2F)nc2c(N3CC[C@H](N)C3)c(NC(=O)c3ccnn(-c4c(F)cccc4F)c3=O)ccc21 [Example 42, N-{4-[(35)-3-aminopyrrolidin-1-yl]-2-(3-fluoropyridin-4-yl)-1-methyl-1,3-benzodiazol-5-yl}-2-(2,6-difluorophenyl)-3-oxopyridazine-4-carboxamide]	< 100 nM
COCc1nc2c(N3CC[C@H](N)C3)c(NC(=O)c3ccnn(-c4c(F)cccc4F)c3=O)ccc2n1C [Example 44, (S)—N-(4-(3-aminopyrrolidin-1-yl)-2-(methoxymethyl)-1-methyl-1H-benzo[d]imidazol-5-yl)-2-(2,6-difluorophenyl)-3-oxo-2,3-dihydropyridazine-4-carboxamide]	< 100 nM
COCCn1c(C)nc2c(N3CCC[C@H]3CN)c(NC(=O)c3ccnn(-c4c(F)cccc4F)c3=O)ccc21 [Example 45]	< 100 nM
CC(C)c1nc2c(N3CC[C@H](N)C3)c(NC(=O)c3ccnn(-c4c(F)cccc4F)c3=O)ccc2n1C [Example 46, (S)—N-(4-(3-aminopyrrolidin-1-yl)-2-isopropyl-1-methyl-1H-benzo[d]imidazol-5-yl)-2-(2,6-difluorophenyl)-3-oxo-2,3-dihydropyridazine-4-carboxamide]	< 100 nM
Cc1nc2c(N3CC[C@H](N)C3)c(NC(=O)c3ccnn(-c4c(F)cccc4F)c3=O)ccc2n1C1CCOCC1 [Example 47, (S)—N-(4-(3-aminopyrrolidin-1-yl)-2-methyl-1-(tetrahydro-2H-pyran-4-yl)-1H-benzo[d]imidazol-5-yl)-2-(2,6-difluorophenyl)-3-oxo-2,3-dihydropyridazine-4-carboxamide trifluoroacetate]	100 to 1000 nM
Cc1nc2c(N3CC[C@H](N)C3)c(NC(=O)c3ccnn(-c4c(F)cccc4F)c3=O)ccc2n1C1CC1 [Example 48, N-{4-[(35)-3-aminopyrrolidin-1-yl]-1-cyclopropyl-2-methyl-1,3-benzodiazol-5-yl}-2-(2,6-difluorophenyl)-3-oxopyridazine-4-carboxamide]	100 to 1000 nM
Cc1nc2c(N3CC[C@H](N)C3)c(NC(=O)c3ccnn(-c4c(Cl)cccc4Cl)c3=O)ccc2n1C [Example 49, N-{4-[(35)-3-aminopyrrolidin-1-yl]-1,2-dimethyl-1,3-benzodiazol-5-yl}-2-(2,6-dichlorophenyl)-3-oxopyridazine-4-carboxamide hydrochloride]	< 100 nM
COc1ccc(F)cc1-n1nccc(C(=O)Nc2ccc3c(nc(C)n3C)c2N2CC[C@H](N)C2)c1=O [Example 50, (S)—N-(4-(3-aminopyrrolidin-1-yl)-1,2-dimethyl-1H-benzo[d]imidazol-5-yl)-2-(5-fluoro-2-methoxyphenyl)-3-oxo-2,3-dihydropyridazine-4-carboxamide]	< 100 nM
COc1cccc(F)c1-n1cccc(C(=O)Nc2cc(F)ccc2N2C[C@H]3C[C@@H]2CN3)c1=O [Example 51, N-(2-((1R,4R)-2,5-diazabicyclo[2.2.1]heptan-2-yl)-5-fluorophenyl)-1-(2-fluoro-6-methoxyphenyl)-2-oxo-1,2-dihydropyridine-3-carboxamide]	< 100 nM
COc1cccc(F)c1-n1cccc(C(=O)Nc2cc(F)c3nn(C)cc3c2N2C[C@H]3C[C@@H]2CN3)c1=O [Example 52, N-(4-((1R,4R)-2,5-diazabicyclo[2.2.1]heptan-2-yl)-7-fluoro-2-methyl-2H-indazol-5-yl)-1-(2-fluoro-6-methoxyphenyl)-2-oxo-1,2-dihydropyridine-3-carboxamide]	100 to 1000 nM
COc1cccc(F)c1-n1cccc(C(=O)Nc2cc(F)c3c(cnn3C)c2N2C[C@H]3C[C@@H]2CN3)c1=O [Example 53, N-(4-((1R,4R)-2,5-diazabicyclo[2.2.1]heptan-2-yl)-7-fluoro-1-methyl-1H-indazol-5-yl)-1-(2-fluoro-6-methoxyphenyl)-2-oxo-1,2-dihydropyridine-3-carboxamide]	100 to 1000 nM

From patent US20250122174A1 (Shenzhen Yuanli Shenwan Innovative Medicine Co., Ltd., priority 2022, published 2025)
